Test results taken from patent publication US8835476B2, “Synthesis of novel antimicrobials” (priority 2005, dated 2014).
Values after ≈ are worked out from the molar mass of the structure shown.

How the values were obtained:
Assay type in all cases: cell-based
[1] = test system: MRSA ATCC 33591; experiment: Broth microdilution MIC, ATCC strains; details: Staphylococcus aureus; MRSA ATCC 33591; read-out: MIC (growth inhibition, microdilution method)
Description: (§1) All clinical isolates tested were from The North American Urinary Tract Infection Collaborative Alliance (NAUTICA) which is a UTI surveillance study involving 40 medical centres (30 from the US and 10 from Canada). Each centre submitted up to 50 consecutive outpatient midstream urine isolates. All isolates were deemed significant urinary tract pathogens by individual laboratory criteria and identified to the species level by each laboratory's existing protocol. Isolates were transported to the coordinating laboratory (Health Sciences Centre, Winnipeg, Canada) on charcoal swabs. Only one isolate per patient was accepted. Upon receipt, isolates were cultured by the coordinating laboratory, stocked in skim milk, and stored at −80° C. awaiting reference antibiotic susceptibility testing. Elementary demographic information was also compiled for each isolate. Isolates were selected randomly from the above pool to represent 18 different species of Enterobacteriaceae and non-Enterobacteriaceae. An average of 5 strains of each species were tested for a total of 93 organisms. In addition, 23 reference (ATCC) [both gram negative and gram positive] strains were tested.
(§2) Susceptibilities to the compounds were determined using the National Committee for Clinical Laboratory Standards (NCCLS) M7-A6 broth microdilution method. […] DMSO controls were incorporated into the panel to mimic the quantity of DMSO used in dissolving some of the compounds at the higher concentrations. Each final panel well volume was 100 μl with a bacterial inoculum of 5×10^5 colony forming units (CFU)/ml. Panels were read following 16 to 20 hours of incubation at 35° C. in ambient air. The minimum inhibitory concentration (MIC) was defined as the lowest concentration of antimicrobial inhibiting visible growth. Quality control (QC) was performed using four ATCC QC organisms that were run with every batch set up to insure reproducibility.

[2] = test system: E. faecium ATCC 35667; experiment: Broth microdilution MIC, ATCC strains; details: Enterococcus faecium, ATCC35667, read-out: MIC (growth inhibition, microdilution method)
Description: as §1, §2

[3] = test system: S. saprophyticus ATCC 15305; experiment: Broth microdilution MIC, ATCC strains; details: Staphylococcus saprophyticus, ATCC15305; S. saprophyticus ATCC 15305; read-out: MIC (growth inhibition, microdilution method)
Description: as §1, §2

[4] = test system: P. mirabilis ATCC 29245; experiment: Broth microdilution MIC, ATCC strains; details: Proteus mirabilis, ATCC29245; P. mirabilis ATCC 29245; read-out: MIC (growth inhibition, microdilution method)
Description: as §1, §2

[5] = test system: S. liquefaciens ATCC 27592; experiment: Broth microdilution MIC, ATCC strains; details: S. liquefaciens ATCC 27592; read-out: MIC (growth inhibition, microdilution method)
Description: as §1, §2

[6] = test system: S. maltophilia ATCC 13637; experiment: Broth microdilution MIC, ATCC strains; details: Stenotrophomonas maltophilia, ATCC13637; S. maltophilia ATCC 13637; read-out: MIC (growth inhibition, microdilution method)
Description: as §1, §2

[7] = test system: E. cloacae ATCC 23355; experiment: Broth microdilution MIC, ATCC strains; details: Enterobacter cloacae, ATCC23355; E. cloacae ATCC 23355; read-out: MIC (growth inhibition, microdilution method)
Description: as §1, §2

[8] = test system: S. epidermidis ATCC 14990; experiment: Broth microdilution MIC, ATCC strains; details: Staphylococcus epidermidis, ATCC14990; S. epidermidis ATCC 14990; read-out: MIC (growth inhibition, microdilution method)
Description: as §1, §2

[9] = test system: S. warneri ATCC 27836; experiment: Broth microdilution MIC, ATCC strains; details: Staphylococcus warneri, ATCC27836; S. warneri ATCC 27836; read-out: MIC (growth inhibition, microdilution method)
Description: as §1, §2

[10] = test system: A. anitratus ATCC 19606; experiment: Broth microdilution MIC, ATCC strains; details: Acinetobacter calcoaceticus, ATCC19606; A. anitratus ATCC 19606; read-out: MIC (growth inhibition, microdilution method)
Description: as §1, §2

[11] = test system: Ps. aeruginosa ATCC 27853; experiment: Broth microdilution MIC, ATCC strains; details: Ps. aeruginosa ATCC 27853; for MIC: Pseudomonas aeruginosa, ATCC27853, read-out: MIC (growth inhibition, microdilution method)
Description: as §1, §2

[12] = test system: P. rettgeri CAP; experiment: Broth microdilution MIC, reference strains; details: Providencia rettgeri; P. rettgeri (CAP in Table 1); read-out: MIC (growth inhibition, microdilution method)
Description: as §1, §2

[13] = test system: P. stuartii clinical isolates; experiment: Broth microdilution MIC, clinical isolate strains (NAUTICA); details: clinical isolates, one table line per isolate; unit assumed
Description: as §1, §2

[14] = test system: M. morganii clinical isolates; experiment: as above; details: clinical isolates, one table line per isolate; unit assumed
Description: as §1, §2

[15] = test system: S. liquifaciens clinical isolates; experiment: as above; details: clinical isolates, one table line per isolate; unit assumed
Description: as §1, §2

[16] = test system: B. cepacia clinical isolates; experiment: as above; details: clinical isolates, one table line per isolate; unit assumed
Description: as §1, §2

[17] = test system: C. amalonaticus clinical isolates; experiment: as above; details: clinical isolates, one table line per isolate; unit assumed
Description: as §1, §2

[18] = test system: C. freundii clinical isolates; experiment: as above; details: clinical isolates, one table line per isolate; in µg/mL (unit assumed)
Description: as §1, §2

[19] = test system: K. pneumoniae clinical isolates; experiment: as above; details: clinical isolates, one table line per isolate; unit assumed
Description: as §1, §2

[20] = test system: E. cloacae clinical isolates; experiment: as above; details: clinical isolates, one table line per isolate; unit assumed
Description: as §1, §2

[21] = test system: E. aerogenes clinical isolates; experiment: as above; details: clinical isolates, one table line per isolate; unit assumed
Description: as §1, §2

[22] = test system: P. mirabilis clinical isolates; experiment: as above; details: clinical isolates, one table line per isolate; unit assumed
Description: as §1, §2

[23] = test system: S. maltophilia clinical isolates; experiment: as above; details: clinical isolates, one table line per isolate; unit assumed
Description: as §1, §2

[24] = test system: C. koseril clinical isolates; experiment: as above; details: clinical isolates, one table line per isolate; unit assumed
Description: as §1, §2

[25] = test system: A. baumanii clinical isolates; experiment: as above; details: clinical isolates, one table line per isolate; unit assumed
Description: as §1, §2

[26] = test system: S. marcescens clinical isolates; experiment: as above; details: clinical isolates, one table line per isolate; unit assumed
Description: as §1, §2

[27] = test system: P. retgerri clinical isolates; experiment: as above; details: clinical isolates, one table line per isolate; unit assumed
Description: as §1, §2

[28] = test system: K. oxytoca clinical isolates; experiment: as above; details: clinical isolates, one table line per isolate; unit assumed
Description: as §1, §2

[29] = test system: P. vulgaris clinical isolates; experiment: as above; details: clinical isolates, one table line per isolate; unit assumed
Description: as §1, §2

[30] = test system: E. coli clinical isolates; experiment: as above; details: clinical isolates, one table line per isolate; unit assumed
Description: as §1, §2

O=C(O)c1cc(-c2nn[nH]n2)cs1 [DNM-116, 4-(2H-Tetrazol-5-yl)-thiophene-2-carboxylic acid]
MIC [1]: > 32 µg/mL
MIC [2]: 8 µg/mL (≈ 40.8 µM)
MIC [3]: 16 µg/mL (≈ 81.6 µM)
MIC [4]: 32 µg/mL (≈ 163 µM)
MIC [5]: 16 µg/mL (≈ 81.6 µM)
MIC [6]: 16 µg/mL (≈ 81.6 µM)
MIC [7]: 16 µg/mL (≈ 81.6 µM)
MIC [8]: 16 µg/mL (≈ 81.6 µM)
MIC [9]: 32 µg/mL (≈ 163 µM)
MIC [10]: 16 µg/mL (≈ 81.6 µM)
MIC [11]: 16 µg/mL (≈ 81.6 µM)
MIC [12]: 32 µg/mL (≈ 163 µM)
MIC, P. STUARTII [13]: 16 µg/mL (≈ 81.6 µM)
MIC, M. MORGANII [14]: 16 µg/mL (≈ 81.6 µM)
MIC, S. LIQUEFACIENS [15]: 16 µg/mL (≈ 81.6 µM)
MIC, B. CEPACIA [16]: 16 µg/mL (≈ 81.6 µM)
MIC, C. AMALONATICUS [17]: 16 µg/mL (≈ 81.6 µM)
MIC, C. FREUNDII [18]: 16
MIC, K. PNEUMONIAE [19]: 16 µg/mL (≈ 81.6 µM)
MIC, E. CLOACAE [20]: 16 µg/mL (≈ 81.6 µM)
MIC, E. AEROGENES [21]: 16 µg/mL (≈ 81.6 µM)
MIC, P. MIRABILIS [22]: 16 µg/mL (≈ 81.6 µM)
MIC, S. MALTOPHILIA [23]: 16 µg/mL (≈ 81.6 µM)
MIC, C. KOSERI [24]: 16 µg/mL (≈ 81.6 µM)
MIC, A. BAUMANII [25]: 16 µg/mL (≈ 81.6 µM)
MIC, S. MARCESCENS [26]: 16 µg/mL (≈ 81.6 µM)
MIC, P. RETTGERI [27]: 16 µg/mL (≈ 81.6 µM)
MIC, K. OXYTOCA [28]: 16 µg/mL (≈ 81.6 µM)

Cn1nnc(-c2cc(C(=O)O)sc2-c2ccc(F)cc2)n1 [DNM-123, 5-(4-fluorophenyl)-4-(2-methyl-2H-tetrazol-5-yl)thiophene-2-carboxylic acid]
MIC [1]: > 8 µg/mL
MIC [2]: 8 µg/mL (≈ 26.3 µM)
MIC [3]: > 8 µg/mL
MIC [4]: > 8 µg/mL
MIC [5]: 8 µg/mL (≈ 26.3 µM)
MIC [6]: ≤ 0.5 µg/mL
MIC [7]: 8 µg/mL (≈ 26.3 µM)
MIC [8]: 4 µg/mL (≈ 13.1 µM)
MIC [9]: > 8 µg/mL
MIC [10]: ≤ 0.5 µg/mL
MIC (growth inhibition, microdilution method) [11]: 8 µg/mL (≈ 26.3 µM)
MIC [11]: 8 µg/mL (≈ 26.3 µM)
MIC [12]: > 8 µg/mL
MIC, C. FREUNDII [18]: 8

CCOC(=O)c1cc(-c2nnn[nH]2)c(-c2ccc(F)cc2)s1 [DNM-124, 5-(4-Fluoro-phenyl)-4-(1H-tetrazol-5-yl)-thiophene-2-carboxylic acid ethyl ester]
MIC [1]: > 64 µg/mL
MIC [2]: > 64 µg/mL
MIC [3]: > 64 µg/mL
MIC [4]: > 64 µg/mL
MIC [5]: > 64 µg/mL
MIC [6]: 64 µg/mL (≈ 201 µM)
MIC [7]: > 64 µg/mL
MIC [8]: 64 µg/mL (≈ 201 µM)
MIC [9]: > 64 µg/mL
MIC [10]: 64 µg/mL (≈ 201 µM)
MIC [11]: > 64 µg/mL
MIC [12]: > 64 µg/mL
MIC, M. MORGANII [14]: > 64 µg/mL
MIC, S. LIQUEFACIENS [15]: > 64 µg/mL
MIC, C. AMALONATICUS [17]: > 64 µg/mL
MIC, C. FREUNDII [18]: >64
MIC, K. PNEUMONIAE [19]: > 64 µg/mL
MIC, E. CLOACAE [20]: > 64 µg/mL
MIC, E. AEROGENES [21]: > 64 µg/mL
MIC, P. VULGARIS [29]: > 64 µg/mL
MIC, P. MIRABILIS [22]: > 64 µg/mL
MIC, S. MALTOPHILIA [23]: > 64 µg/mL
MIC, C. KOSERI [24]: > 64 µg/mL
MIC, E. COLI [30]: > 64 µg/mL
MIC, S. MARCESCENS [26]: > 64 µg/mL
MIC, P. RETTGERI [27]: > 64 µg/mL
MIC, K. OXYTOCA [28]: > 64 µg/mL
